From patent publication US10858321B2, “Composition for inducing cell reprogramming” (GWANGJU INSTITUTE OF SCIENCE AND TECHNOLOGY, priority 2014, dated 2020)
pIC50: −log10 of the molar value.

How the values were obtained:
C2C12 myoblasts = assay: MTT assay (cytotoxicity); type: cell-based, mouse; conditions: for pIC50: C2C12 myoblasts, incubated 2 days with compound; for cytotoxicity: result in words, comparison with the indazole derivatives
Description: C2C12 myoblasts were seeded in a 96-well plate at a density of 3×10^3 cells per well. The cells were cultured for one day, and then treated with each compound. Next, the cells were incubated for 2 days, and then treated with a serum-free medium containing 3-(4,5-dimethylthiazol-2-yl)-2,5-diphenyltetrazolium bromide (MTT) for 3 hours. After removal of the medium, the cells were incubated in DMSO for 10 minutes while they were shaken. The absorbance at 570 nm was measured by a microreader (VersaMax, Molecular Devices) (see FIG. 4).

Aurora A = biological target: T1, Aurora A (Homo sapiens, UniProt O14965); assay: HTRF kinase assay, Aurora A; type: biochemical; conditions: 1 μM compound
T1 construct: purchased Millipore (Billerica, Mass.)
T1 sequence (O14965 1-403): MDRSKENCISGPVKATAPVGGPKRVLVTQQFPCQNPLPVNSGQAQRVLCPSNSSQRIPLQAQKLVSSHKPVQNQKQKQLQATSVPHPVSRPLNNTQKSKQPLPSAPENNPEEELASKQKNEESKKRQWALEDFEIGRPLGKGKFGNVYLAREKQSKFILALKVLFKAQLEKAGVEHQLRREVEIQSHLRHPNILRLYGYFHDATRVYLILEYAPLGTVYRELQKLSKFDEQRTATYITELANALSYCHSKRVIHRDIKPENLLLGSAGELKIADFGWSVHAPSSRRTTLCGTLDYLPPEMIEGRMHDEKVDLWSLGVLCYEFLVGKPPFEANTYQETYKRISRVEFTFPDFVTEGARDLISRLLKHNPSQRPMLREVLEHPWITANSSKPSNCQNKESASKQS
Description: (§1) The inhibitory activities of indazole derivatives against GSK-3 β and Aurora A were analyzed by HTRF (homogeneous time-resolved fluorescence) assay. The HTRF assay is an assay method that detects the phosphorylation of peptide substances in the presence of ATP. Phosphorylated substances were detected by TR-FRET (Time Resolved-Fluorescence Resonance) signals. Recombinant GSK-3 β and Aurora A kinase were purchased from Millipore (Billerica, Mass.). Using a HTRF KinEASE kit (Cisbio), the assay was performed. Each of GSK-3 β and Aurora A was treated with 1 μM of each indazole compound, and the degree of inhibition of phosphorylation was analyzed. The assay was composed of a compound-enzyme mixture and peptide substance dissolved in kinase reaction buffer (250 mM HEPES (pH 7.0), 0.5 mM orthovanadate, 0.05% BSA, 0.1% NaN3). After addition of detection buffer, the TR-FRET signal was detected by an EnVision multi-label reader.

GSK-3β = biological target: T2, GSK-3β (Homo sapiens, UniProt P49841); assay: HTRF kinase assay, GSK-3β; type: biochemical; conditions: 1 μM compound
T2 construct: purchased Millipore (Billerica, Mass.)
T2 sequence (P49841 whole entry, species assumed): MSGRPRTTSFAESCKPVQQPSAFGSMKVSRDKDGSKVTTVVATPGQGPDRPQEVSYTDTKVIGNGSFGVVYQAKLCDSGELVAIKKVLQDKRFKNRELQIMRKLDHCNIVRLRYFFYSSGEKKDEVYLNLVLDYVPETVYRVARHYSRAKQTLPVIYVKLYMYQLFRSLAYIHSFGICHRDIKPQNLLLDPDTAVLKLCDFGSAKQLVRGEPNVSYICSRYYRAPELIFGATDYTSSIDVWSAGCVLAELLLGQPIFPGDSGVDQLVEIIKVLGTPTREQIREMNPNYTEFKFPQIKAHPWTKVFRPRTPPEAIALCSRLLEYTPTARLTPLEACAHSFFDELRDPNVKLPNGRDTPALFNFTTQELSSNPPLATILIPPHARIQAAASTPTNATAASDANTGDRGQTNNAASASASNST
Description: as §1

[1] = system: C2C12 mouse skeletal myoblasts; assay: Cell screening by Alizarin red staining (direct reprogramming of myoblasts into osteoblasts); type: cell-based; parameters: key to Alizarin red staining (osteoblasts): ++ (strong positive); + (weak positive); − (negative); conditions: for Alizarin red staining (osteoblasts): C2C12 myoblasts treated 72 hours with compound, then osteogenic differentiation inducing medium 14 days, reversine 100 nM; for reprogramming potential in differentiation into osteoblasts: Alizarin red staining, result in words
Description: A method for identifying compounds that induce cell reprogramming was based on a previous study (PMID: 23044010 and 18974773) on the myocyte-to-osteocyte conversion by bone formation induction and a previous reversine publication (Chen S 2004).
C2C12 mouse skeletal myoblasts were seeded in a 24-well cell culture dish at a density of 1×10^4 cells per well. 24 Hours after seeding, the compound of interest was added to three well at a concentration of […]. For a positive control, the cells were treated with 100 nM reversine or 2 μM BIO. The two compounds are known to induce the conversion of myoblasts to […] (Chen S 2004 and Kim WH recapitulate papers). For a negative control, the cells were untreated or treated with DMSO. The cells were treated with each compound for a total of 72 hours, and were further treated with each compound after 48 hours. The cytotoxicity of each compound could be confirmed from disappearance of a portion of the cells and from floating cell debris during culture, and a compound causing cytotoxicity was screened again at a concentration of 250 nM. After 72 hours, the medium was replaced with an osteogenic differentiation inducing medium (treated for 14 days with a DMEM supplemented with 10% FBS, […] ascorbic acid-2-phosphate, 0.1 μM dexamethasone, 10 mM β-glycerophosphate, 50 units/mL of penicillin, and […] streptomycin). The osteogenic differentiation inducing medium was based on one previously described in direct cell reprogramming (reversine papers, Chen S 2004 and Chen S 200/). Direct cell reprogramming from myocytes to osteocytes was analyzed by Alizarin red staining that detects calcium deposits (Gregory CA 2004 PMID: 15136169) in bone lineage cells.
Cells were washed once with PBS, and then fixed with phosphate-buffered formalin for 20 minutes. The fixed cells were washed with distilled water, and immersed in a solution of 1% Alizarin red-S in water for 5 minutes. The remaining dye was washed out with distilled water. The cells were dried, and then imaged with an optical microscope (CKX41 Olympus). The stained cells did look red, and a compound corresponding to such cells was selected as a ‘hit’ compound and further analyzed.

adipocytes = assay: Oil red O staining (differentiation into adipocytes); type: cell-based; parameters: key to Oil red O staining (adipocytes): ++ (strong positive); + (weak positive); − (negative); conditions: for reprogramming potential in differentiation into adipocytes: oil red O staining, result in words

COC(=O)c1ccc2[nH]nc(NC(=NO)c3ccccc3)c2c1 [LDD-2195, Methyl-3-(N′-hydroxybenzimidamido)-1H-indazole-5-carboxylate]
pIC50 (C2C12 myoblasts; Mus musculus, 48 h): < 5.00

O=C(Nc1n[nH]c2ccc(C(=O)N3CCCCC3)cc12)c1ccccc1 [LDD-1820, N-(5-(piperidine-1-carbonyl)-1H-indazol-3-yl)benzamide]
inhibition at 1 µM (Aurora A; read-out: % Inhibition at 1 μM concentration, Aurora-A): 32.5% | inhibition at 1 µM (GSK-3β; read-out: % Inhibition at 1 μM concentration, GSK-3β): 0.5% | Alizarin red staining (osteoblasts) [1]: −

c1nc2nc(Nc3ccc(N4CCOCC4)cc3)nc(NC3CCCCC3)c2[nH]1 [Reversine, reference compound]
cytotoxicity (C2C12 myoblasts): high cytotoxicity | Oil red O staining (adipocytes) (adipocytes): ++ | reprogramming potential in differentiation into osteoblasts [1]: strong reprogramming potential | Alizarin red staining (osteoblasts) [1]: ++

O=C1Nc2cc(Br)ccc2/C1=C1/Nc2ccccc2/C1=N\O [BIO, reference compound]
cytotoxicity (C2C12 myoblasts): high cytotoxicity

COC(=O)c1ccc2[nH]nc(C(=NO)Nc3ccccc3)c2c1 [LDD-2196, Methyl-3-(N′-hydroxy-N-phenylcarbamimidoyl)-1H-indazole-5-carboxylate]
pIC50 (C2C12 myoblasts; Mus musculus, 48 h): < 5.00

O=[N+]([O-])c1ccc2[nH]nc(NS(=O)(=O)c3ccccc3)c2c1 [LDD-1667, N-(5-nitro-111-indazol-3-yl)benzenesulfonamide]
% Inhibition at 1 μM concentration, Aurora-A (Aurora A): 0% | % Inhibition at 1 μM concentration, GSK-3β (GSK-3β): 0% | Alizarin red staining (osteoblasts) [1]: −

O=C(O)c1ccc2[nH]nc(C(=NO)Nc3ccc(F)cc3)c2c1 [LDD-2197, 3-N-(4-fluorophenyl)-N′-hydroxycarbamimidoyl-1H-indazole-5-carboxylic Acid]
pIC50 (C2C12 myoblasts): < 5.00

COCCN1CCN(C(=O)c2ccc3[nH]nc(C(=NO)Nc4ccccc4)c3c2)CC1 [LDD-1988, N′-hydroxy-5-(4-(2-methoxyethyl)piperazine-1-carbonyl)-N-phenyl-1H-indazole 3-carboximidamide]
pIC50 (C2C12 myoblasts; Mus musculus, 48 h): < 5.00 | Oil red O staining (adipocytes) (adipocytes): ++ | reprogramming potential in differentiation into adipocytes (adipocytes): strong reprogramming potential | Alizarin red staining (osteoblasts) [1]: +

COc1ccc(NC(=NO)c2n[nH]c3ccc(C(=O)O)cc23)cc1 [LDD-2198, 3-(N′-hydroxy-N-(4-methoxyphenyl)carbaminidoyl)-1H-indazole-5-carboxylic Acid]
pIC50 (C2C12 myoblasts): < 5.00

O=C(O)c1ccc2[nH]nc(C(=NO)Nc3ccccc3)c2c1 [LDD-1986, 3-(N′-hydroxy-N-phenylcarbamimidoyl)-1H-indazole-5-carboxylic Acid]
pIC50 (C2C12 myoblasts; Mus musculus, 48 h): < 5.00 | Oil red O staining (adipocytes) (adipocytes): ++ | reprogramming potential in differentiation into adipocytes (adipocytes): strong reprogramming potential | Alizarin red staining (osteoblasts) [1]: +

O=C(c1ccc2[nH]nc(C(=NO)Nc3ccc(F)cc3)c2c1)N1CCCCC1 [LDD-2199, N-(4-fluorophenyl)-N′-hydroxy-5-(piperidine-1-carbonyl)-1H-indazole-3-carboxamide]
pIC50 (C2C12 myoblasts): < 5.00 | reprogramming potential in differentiation into osteoblasts [1]: strong reprogramming potential | Alizarin red staining (osteoblasts) [1]: ++

CCCN1CCN(C(=O)c2ccc3[nH]nc(C(=NO)Nc4ccccc4)c3c2)CC1 [LDD-1987, N′-hydroxy-N-phenyl-5-(4-propylpiperazine-1-carbonyl)-1H-indazole-3-carboxamide]
pIC50 (C2C12 myoblasts): < 5.00 | Oil red O staining (adipocytes) (adipocytes): ++ | reprogramming potential in differentiation into adipocytes (adipocytes): strong reprogramming potential | Alizarin red staining (osteoblasts) [1]: +

O=C(c1ccc2[nH]nc(C(=NO)Nc3ccccc3)c2c1)N1CCCCC1 [LDD-1821, N′-hydroxy-N-phenyl-5-(piperidine-1-carbonyl)-1H-indazole-3-carboxamide]
% Inhibition at 1 μM concentration, Aurora-A (Aurora A; 1 µM): no inhibitory activity | % Inhibition at 1 μM concentration, Aurora-A (Aurora A; listed as LDD1821, 1 µM): 0% | pIC50 (C2C12 myoblasts): < 5.00 | Oil red O staining (adipocytes) (adipocytes): ++ | reprogramming potential in differentiation into adipocytes (adipocytes): strong reprogramming potential | % Inhibition at 1 μM concentration, GSK-3β (GSK-3β; 1 µM): no inhibitory activity | % Inhibition at 1 μM concentration, GSK-3β (GSK-3β; listed as LDD1821, 1 µM): 0.2% | reprogramming potential in differentiation into osteoblasts [1]: strong reprogramming potential | Alizarin red staining (osteoblasts) [1]: ++

O=C(c1ccc2[nH]nc(NC(=NO)c3ccccc3)c2c1)N1CCCCC1 [LDD-1945, N′-hydoxy-N-(5-(piperidine-1-carbonyl)-111-indazol-3-yl)benzimidamide]
pIC50 (C2C12 myoblasts): < 5.00 | reprogramming potential in differentiation into osteoblasts [1]: strong reprogramming potential | Alizarin red staining (osteoblasts) [1]: ++

COc1ccc(NC(=NO)c2n[nH]c3ccc(C(=O)N4CCCCC4)cc23)cc1 [LDD-2200, N′-hydroxy-N-(4-methoxyphenyl)-5-(piperidine-1-carbonyl)-1H-indazole-3-carboxamide]
pIC50 (C2C12 myoblasts): < 5.00 | reprogramming potential in differentiation into osteoblasts [1]: strong reprogramming potential | Alizarin red staining (osteoblasts) [1]: ++

O=C(Nc1n[nH]c2ccc([N+](=O)[O-])cc12)c1ccccc1 [LDD-1664, N-(5-nitro-1(2)H-indazol-3-yl)-benzamide]
% Inhibition at 1 μM concentration, Aurora-A (Aurora A): 0% | % Inhibition at 1 μM concentration, GSK-3β (GSK-3β): 6.5% | reprogramming potential in differentiation into osteoblasts [1]: strong reprogramming potential | Alizarin red staining (osteoblasts) [1]: ++

O=C(O)c1ccc2[nH]nc(NC(=NO)c3ccccc3)c2c1 [LDD-2194, 3-(N′-hydroxybenzimidamido)-1H-indazole-5-carboxylic Acid]
pIC50 (C2C12 myoblasts; Mus musculus, 48 h): < 5.00
